Source: the NIST ThermoML archive (doi:10.1021/je020153x)
± gives the expanded uncertainty stated by the source.

Assay: mn = molality of the nth substance listed, in mol/kg
Conditions: 101.3 kPa, Liquid; for viscosity: Capillary tube (Ostwald / Ubbelohde) method; for mass density: Vibrating tube method

## O [water] + [Cl-].[Na+]
293.15 K, m2 = 0
  viscosity: 1.002 ± 0.009 mPa·s
303.15 K, m2 = 0
  viscosity: 0.797 ± 0.007 mPa·s
313.15 K, m2 = 0
  viscosity: 0.653 ± 0.006 mPa·s

## [Cl-].[Na+] [sodium chloride] + O
293.15 K, m1 = 0.5
  viscosity: 1.041 ± 0.009 mPa·s
  mass density: 1018.6 ± 0.2 kg/m3
293.15 K, m1 = 1
  viscosity: 1.087 ± 0.01 mPa·s
  mass density: 1037.8 ± 0.2 kg/m3
293.15 K, m1 = 1.5
  viscosity: 1.138 ± 0.01 mPa·s
  mass density: 1056.3 ± 0.2 kg/m3
293.15 K, m1 = 2
  viscosity: 1.196 ± 0.01 mPa·s
  mass density: 1074.1 ± 0.2 kg/m3
293.15 K, m1 = 2.5
  viscosity: 1.264 ± 0.011 mPa·s
  mass density: 1091.4 ± 0.2 kg/m3
293.15 K, m1 = 3
  viscosity: 1.333 ± 0.012 mPa·s
  mass density: 1107.8 ± 0.2 kg/m3
293.15 K, m1 = 3.5
  viscosity: 1.411 ± 0.012 mPa·s
  mass density: 1123.9 ± 0.3 kg/m3
293.15 K, m1 = 4
  viscosity: 1.499 ± 0.013 mPa·s
  mass density: 1139.2 ± 0.3 kg/m3
303.15 K, m1 = 0.5
  viscosity: 0.835 ± 0.008 mPa·s
  mass density: 1015.7 ± 0.2 kg/m3
303.15 K, m1 = 1
  viscosity: 0.873 ± 0.008 mPa·s
  mass density: 1034.4 ± 0.2 kg/m3
303.15 K, m1 = 1.5
  viscosity: 0.918 ± 0.008 mPa·s
  mass density: 1052.6 ± 0.2 kg/m3
303.15 K, m1 = 2
  viscosity: 0.966 ± 0.009 mPa·s
  mass density: 1070.1 ± 0.2 kg/m3
303.15 K, m1 = 2.5
  viscosity: 1.021 ± 0.009 mPa·s
  mass density: 1087.2 ± 0.2 kg/m3
303.15 K, m1 = 3
  viscosity: 1.077 ± 0.01 mPa·s
  mass density: 1103.4 ± 0.2 kg/m3
303.15 K, m1 = 3.5
  viscosity: 1.14 ± 0.01 mPa·s
  mass density: 1119.2 ± 0.3 kg/m3
303.15 K, m1 = 4
  viscosity: 1.208 ± 0.011 mPa·s
  mass density: 1134.4 ± 0.3 kg/m3
313.15 K, m1 = 0.5
  viscosity: 0.688 ± 0.007 mPa·s
  mass density: 1011.9 ± 0.2 kg/m3
313.15 K, m1 = 1
  viscosity: 0.722 ± 0.007 mPa·s
  mass density: 1030.4 ± 0.2 kg/m3
313.15 K, m1 = 1.5
  viscosity: 0.76 ± 0.007 mPa·s
  mass density: 1048.4 ± 0.2 kg/m3
313.15 K, m1 = 2
  viscosity: 0.802 ± 0.007 mPa·s
  mass density: 1065.7 ± 0.2 kg/m3
313.15 K, m1 = 2.5
  viscosity: 0.848 ± 0.008 mPa·s
  mass density: 1082.5 ± 0.2 kg/m3
313.15 K, m1 = 3
  viscosity: 0.895 ± 0.008 mPa·s
  mass density: 1098.6 ± 0.2 kg/m3
313.15 K, m1 = 3.5
  viscosity: 0.945 ± 0.009 mPa·s
  mass density: 1114.3 ± 0.3 kg/m3
313.15 K, m1 = 4
  viscosity: 1 ± 0.009 mPa·s
  mass density: 1129.3 ± 0.3 kg/m3

## O=C[C@H](O)[C@@H](O)[C@H](O)[C@H](O)CO [D-glucose] + O
293.15 K, m1 = 0.5
  viscosity: 1.256 ± 0.011 mPa·s
  mass density: 1030.7 ± 0.2 kg/m3
293.15 K, m1 = 1
  viscosity: 1.587 ± 0.014 mPa·s
  mass density: 1059.7 ± 0.2 kg/m3
293.15 K, m1 = 1.5
  viscosity: 1.993 ± 0.018 mPa·s
  mass density: 1085.4 ± 0.3 kg/m3
293.15 K, m1 = 2
  viscosity: 2.512 ± 0.023 mPa·s
  mass density: 1108.8 ± 0.3 kg/m3
293.15 K, m1 = 2.5
  viscosity: 3.159 ± 0.029 mPa·s
  mass density: 1129.8 ± 0.3 kg/m3
293.15 K, m1 = 3
  viscosity: 3.947 ± 0.037 mPa·s
  mass density: 1148.8 ± 0.3 kg/m3
293.15 K, m1 = 3.5
  viscosity: 4.96 ± 0.046 mPa·s
  mass density: 1166.3 ± 0.3 kg/m3
293.15 K, m1 = 4
  viscosity: 6.131 ± 0.056 mPa·s
  mass density: 1182.2 ± 0.3 kg/m3
303.15 K, m1 = 0.5
  viscosity: 0.988 ± 0.009 mPa·s
  mass density: 1027.7 ± 0.2 kg/m3
303.15 K, m1 = 1
  viscosity: 1.231 ± 0.011 mPa·s
  mass density: 1056.4 ± 0.2 kg/m3
303.15 K, m1 = 1.5
  viscosity: 1.523 ± 0.014 mPa·s
  mass density: 1081.8 ± 0.3 kg/m3
303.15 K, m1 = 2
  viscosity: 1.89 ± 0.018 mPa·s
  mass density: 1105 ± 0.3 kg/m3
303.15 K, m1 = 2.5
  viscosity: 2.341 ± 0.022 mPa·s
  mass density: 1125.7 ± 0.3 kg/m3
303.15 K, m1 = 3
  viscosity: 2.873 ± 0.028 mPa·s
  mass density: 1144.6 ± 0.3 kg/m3
303.15 K, m1 = 3.5
  viscosity: 3.553 ± 0.035 mPa·s
  mass density: 1161.9 ± 0.3 kg/m3
303.15 K, m1 = 4
  viscosity: 4.309 ± 0.043 mPa·s
  mass density: 1177.7 ± 0.3 kg/m3
313.15 K, m1 = 0.5
  viscosity: 0.801 ± 0.007 mPa·s
  mass density: 1024 ± 0.2 kg/m3
313.15 K, m1 = 1
  viscosity: 0.985 ± 0.009 mPa·s
  mass density: 1052.4 ± 0.2 kg/m3
313.15 K, m1 = 1.5
  viscosity: 1.205 ± 0.011 mPa·s
  mass density: 1077.6 ± 0.2 kg/m3
313.15 K, m1 = 2
  viscosity: 1.475 ± 0.014 mPa·s
  mass density: 1100.6 ± 0.3 kg/m3
313.15 K, m1 = 2.5
  viscosity: 1.804 ± 0.017 mPa·s
  mass density: 1121.2 ± 0.3 kg/m3
313.15 K, m1 = 3
  viscosity: 2.182 ± 0.021 mPa·s
  mass density: 1139.9 ± 0.3 kg/m3
313.15 K, m1 = 3.5
  viscosity: 2.66 ± 0.026 mPa·s
  mass density: 1157.1 ± 0.3 kg/m3
313.15 K, m1 = 4
  viscosity: 3.175 ± 0.033 mPa·s
  mass density: 1172.7 ± 0.3 kg/m3

## O [water] + O=C[C@H](O)[C@@H](O)[C@H](O)[C@H](O)CO
293.15 K, m2 = 0
  viscosity: 1.002 ± 0.009 mPa·s
303.15 K, m2 = 0
  viscosity: 0.797 ± 0.007 mPa·s
313.15 K, m2 = 0
  viscosity: 0.653 ± 0.006 mPa·s
